Entries after “also recorded” stand apart in the source; their conditions may differ. Where a SMILES comes first, the peptide text is derived from it. Bridges are numbered along the chain shown (N, C = ends). Where no end group is shown, it is not given here.
Key:
[1] = system: cultured vascular smooth muscle cells (VSMC) derived from the aortas of rats; assay: cGMP producing activity in cultured VSMC (cGMP radioimmunoassay); format: cell-based, rat; settings: for cGMP producing activity (in words): comparison with CNP-22 or α-hANP; for cGMP producing activity (% increase for 1 μm): specific activity compared to 1 μm α-hANP (2000 fmol/400000 cells) = 100, peptide at 1 μm
Description: 1-1: Measurement of CGMP Producing Activity
The above-mentioned activity of compounds synthesized according to the present invention was measured by the methods of Hirata et al. (Biochem. Biophys. Res. Commun., 128, 538, 1985) and Scarborough et al. (J. Biol. Chem., 261, 12960, 1986). The cells used were cultured vascular smooth muscle cells (hereunder abbreviated as VSMC) derived from the aortas of rats. From 10^-9 to 10^-6 M of α-hANP or a 20 peptide of interest was incubated together with VSMC and the amount cGMP produced was measured by cGMP radioimmunoassay. Percent maximum reactivity for each peptide, with the value of maximum reactivity for α-hANP being taken as 100%, was used as an indicator of activity.

[2] = system: cultured vascular smooth muscle cells (VSMC) derived from the aortas of rats; assay: Cell growth suppressing activity: [3H] thymidine uptake (DNA synthesis inhibition) in VSMC; format: cell-based, rat; settings: for % Inhibition of 3H-thymidine uptake: 0.1 μm of each peptide, BSMC line stimulated with PDGF (20 ng/ml); for intensity of DNA synthesis / cell growth suppressing action relative to α-hANP: rat VSMC, compared with α-hANP
Description: 1-2: Measurement of Cell Growth Suppressing Activity
Cell growth suppressing activity was evaluated in accordance with the method of Kariya et al. (Atherosclerosis, 80, 143-147, 1990) by measuring the uptake of [^3 H] thymidine into cells as an indicator of percent DNA synthesis inhibition using the above-identified VSMC. Cells tuned to a stationary phase were incubated at 37° C. for 14 h with each sample added in the presence of 1% serum or 20 ng/ml of PDGF (platelet derived growth factor). Then, following the addition of 37 kBq/ml of [^3 H] thymidine, the incubation was continued for another 4 h and the radioactivity of [^3 H] thymidine incorporated into the cells was measured. The values of measurement were such that the uptake of [^3 H] thymidine for the case where only 1% serum or PDGF was added in the absence of peptide was taken as 100%, with the percent suppression due to the peptide addition being accordingly calculated.

[3] = system: cultured vascular smooth muscle cells (VSMC) derived from the aortas of rats; settings: Furuya et al. 1990; cited from earlier work

Compound | cGMP producing activity (in words) ([1]; rat VSMC) | cGMP producing activity (% increase for 1 μm) [1] | % Inhibition of 3H-thymidine uptake [2] | cGMP producing activity relative to α-hANP ([1]; rat VSMC, times as high activity as α-hANP) | increase of intracellular cGMP level in VSMC compared with ANP or BNP [3] | intensity of DNA synthesis / cell growth suppressing action relative to α-hANP [2] | suppression of DNA synthesis of rat VSMC (in words) ([2]; FIGS. 2, 3 and 4)
CC[C@H](C)[C@@H]1NC(=O)[C@H](CCCNC(=N)N)NC(=O)[C@H](CC(=O)O)NC(=O)[C@H](CC(C)C)NC(=O)[C@H](CCCCN)NC(=O)CNC(=O)CNC(=O)[C@H](Cc2ccccc2)NC(=O)[C@@H](NC(=O)CNC(=O)[C@H](CCCCN)NC(=O)[C@H](CO)NC(=O)[C@H](CC(C)C)NC(=O)CN)CSSC[C@@H](C(=O)O)NC(=O)CNC(=O)[C@H](CC(C)C)NC(=O)CNC(=O)[C@H](CO)NC(=O)[C@H](CCSC)NC(=O)[C@H](CO)NC(=O)CNC1=O [Compound 6] (H-GLSKGCFGGKLDRIGSMSGLGC-OH; disulfide 6-22) | lower activity than CNP-22 (but higher than that of α-hANP); also recorded: lower in cGMP producing activity than the other one- and two-residue substituted derivatives | 344% | 49% |  |  |  | 
CC[C@H](C)[C@@H]1NC(=O)[C@H](CCCNC(=N)N)NC(=O)[C@H](CC(=O)O)NC(=O)[C@H](CCSC)NC(=O)[C@H](CCCNC(=N)N)NC(=O)CNC(=O)CNC(=O)[C@H](Cc2ccccc2)NC(=O)[C@@H](NC(=O)CNC(=O)[C@H](CCCCN)NC(=O)[C@H](CO)NC(=O)[C@H](CC(C)C)NC(=O)CN)CSSC[C@@H](C(=O)O)NC(=O)CNC(=O)[C@H](CC(C)C)NC(=O)CNC(=O)[C@H](CO)NC(=O)[C@H](CCSC)NC(=O)[C@H](CO)NC(=O)CNC1=O [Compound 14] (H-GLSKGCFGGRMDRIGSMSGLGC-OH; disulfide 6-22) | marked drop in activity | 23% | 17% |  |  |  | 
CC[C@H](C)[C@@H]1NC(=O)[C@H](CCCNC(=N)N)NC(=O)[C@H](CC(=O)O)NC(=O)[C@H](CC(C)C)NC(=O)[C@H](CCCCN)NC(=O)[C@H](CC(C)C)NC(=O)CNC(=O)[C@H](Cc2ccccc2)NC(=O)[C@@H](N)CSSC[C@@H](C(=O)N[C@@H](CC(N)=O)C(=O)N[C@@H](CO)C(=O)N[C@@H](Cc2ccccc2)C(=O)N[C@@H](CCCNC(=N)N)C(=O)N[C@@H](Cc2ccc(O)cc2)C(=O)O)NC(=O)CNC(=O)[C@H](CC(C)C)NC(=O)CNC(=O)[C@H](CO)NC(=O)[C@H](CCC(N)=O)NC(=O)[C@H](C)NC(=O)CNC1=O [Compound 15, [Leu10, Lys11, Leu12] α-hANP (7-28)] (H-CFGLKLDRIGAQSGLGCNSFRY-OH; disulfide 1-17) | strong cGMP producing activity at a substantially comparable level to CNP-22 | 559% | 72% | 4-6 times |  |  | 
CNP: C-type natriuretic peptide, named generically in the text (GLSKGCFGLKLDRIGSMSGLGC; disulfide 6-22 (inferred); ends not checked; UniProt P23582 105-126, looked up) [reference compound] |  |  |  |  | several times as much | 10 times | 
hCNP-53: human CNP-53, CNP-22 with 31 amino acid residues attached to the N-terminus (DLRVDTKSRAAWARLLQEHPNARKYKGANKKGLSKGCFGLKLDRIGSMSGLGC; disulfide 37-53 (inferred); ends not checked; UniProt P23582 74-126, looked up) [reference compound] |  | 458% | 71% |  |  | 10 times | suppress the DNA synthesis of rat VSMC in a dose-dependent manner

Reference: patent US5434133A, “CNP analog peptides and their use” (Suntory Limited, priority 1991, dated 1995)
